Tests used:
[1] = with these regimens; cited from earlier work
[2] = tested on: human cell lines (tumor cell proliferation); settings: compared with BN82685; cited from earlier work
[3] = tested on: FLT3-ITD primary AML cells from patients; test: Differentiation of FLT3-ITD primary AML samples; format: cell-based, human
Protocol: (a) 4 primary samples from patients carrying the FLT3-ITD mutation (ITD #1-4) were treated for 6 days with IRC-083864 (100 nM), and the expression of CD14 (upper panel) and CD15 (lower panel) was followed by flow cytometry analysis. (b) Quantification (mean±SEM, n=4) of CD14 and CD15 expression in response to IRC-083864. (c) The morphology of primary cells from patients used in (a) was analyzed by microscopy after 6 days and 9 days of treatment with IRC-083864. Original magnification ×100.
Patient samples. Patient AML samples were obtained after informed consent in accordance with the Declaration of Helsinki and stored at the HIMIP collection. According to the French law, HIMIP collection has been declared to the Ministry of Higher Education and Research (DC 2008-307 collection 1) and obtained a transfer agreement (AC 2008-129) after approbation by ethical committees (Comité de Protection des Personnes Sud-Ouest et Outremer II and APHP ethical committee). […]
Flow cytometry. Apoptotic cells were detected with Annexin V-FITC detection kit from BD Pharmingen (San Diego, Calif., USA) according to the manufacturer instructions. […] Data were collected on a LSRII or a LSRFortessa cytometer (BD Biosciences), and analyzed with FlowJo software. […]

[4] = tested on: MOLM-14 cells (FLT3-ITD positive); test: Cell proliferation, trypan blue counting, MOLM-14; format: cell-based, human; settings: 200 nM
Protocol: (§1) Cells were harvested each day and counted after trypan blue staining. The graphs represent three independent experiments.
Cell lines and reagents. […] Concerning MOLM-14 cell line, the presence of a monoallelic 21 bp FLT3-ITD mutation and of an MLL-containing ins(11; 9)(q23;p22p23) were verified (Hematology laboratory of Toulouse University Hospital, Prof E. Delabesse and Dr I. Luquet). KG1 and HL-60 (ACC-14 and ACC-3, DSMZ) cell lines were grown in Iscove's Modified Dulbecco's Medium (IMDM, Gibco) plus 20% FBS. All cells were grown in the presence of 100 units/ml of penicillin and streptomycin (Invitrogen) at 37° C. and 5% CO2.
siRNA. The MV4-11 cell line was transfected with the Amaxa nucleofection technology (Lonza, Koeln, Germany). […] Twenty-four or forty-eight hours after transfection, cells were counted (trypan blue staining), and western blotting was performed.

FLT3-ITD cells = test: Cell death and cell cycle phase at antiproliferative concentrations; format: cell-based, human; settings: at concentrations inhibiting cell proliferation
Protocol: Flow cytometry. Apoptotic cells were detected with Annexin V-FITC detection kit from BD Pharmingen (San Diego, Calif., USA) according to the manufacturer instructions. To evaluate AML cell differentiation, cells were stained for 30 min with the following anti-human monoclonal antibodies: CD11b-PE (Beckman Coulter), CD14-FITC (BD Biosciences), CD15-APC (BD Biosciences). For patient samples, additional hCD45-APC-H7 (BD Biosciences), Annexin V-Pacific Blue (BioLegend, San Diego, Calif., USA) and 7-AAD (Sigma) were used; and for bone marrow mice cells, additional CD33-FITC, CD44-PE Cy7, mCD45-PerCP Cy 5.5, CD14-Alexa 700 were used. Data were collected on a LSRII or a LSRFortessa cytometer (BD Biosciences), and analyzed with FlowJo software. A minimum of 10,000 events was collected.

[5] = tested on: MOLM-14 TKD cells (FLT3-ITD-D835Y); test: Cell proliferation, MOLM-14 expressing FLT3-ITD/TKD (D835Y); format: cell-based, human; settings: 200 nM
Source text: as §1
We consequently developed a cellular model consisting of MOLM-14 cells transfected with a FLT3-ITD mutant with a D835Y amino-acid substitution within the FLT3 kinase domain (FLT3-ITD-D835Y; FLT3-ITD/TKD).

[6] = tested on: HL-60 cells (FLT3 wild type); test: Cell proliferation, trypan blue counting, HL-60; format: cell-based, human
Protocol: (a) MV4-11 and MOLM-14 FLT3-ITD positive cells, KG1, HL-60 and TF-1 FLT3 wild type cells, and K562 FLT3 negative cells were cultured in the presence of the CDC25 inhibitor IRC-083864 (200 nM). Cells were harvested each day and counted after trypan blue coloration. The graph represents three independent experiments.
Cell lines and reagents. Human acute myeloid leukemia cell lines MOLM-14 (Matsuo Y et al, Leukemia 1997) (kindly provided by Martin Carroll, University of Pennsylvania, Philadelphia, Pa., USA) MV4-11, K562 (ACC-102 and ACC-10, DSMZ, Braunschweig, Germany) and FLT3-ITD-expressing murine BaF3 cells were cultured in RPMI 1640 medium (Gibco, Life Technologies, Carlsbad, Calif., USA) supplemented with 10% fetal bovine serum (Sigma, Saint Louis, Calif., USA). TF-1 (ATCC-CRL2003) cells were cultured in RPMI 1640 medium with 10% fetal bovine serum and GM-CSF 2 ng/ml. Concerning MOLM-14 cell line, the presence of a monoallelic 21 bp FLT3-ITD mutation and of an MLL-containing ins(11; 9)(q23;p22p23) were verified (Hematology laboratory of Toulouse University Hospital, Prof E. Delabesse and Dr I. Luquet). KG1 and HL-60 (ACC-14 and ACC-3, DSMZ) cell lines were grown in Iscove's Modified Dulbecco's Medium (IMDM, Gibco) plus 20% FBS. All cells were grown in the presence of 100 units/ml of penicillin and streptomycin (Invitrogen) at 37° C. and 5% CO2.

Cdc25A = Cdc25A (Homo sapiens, UniProt P30304); settings: cited from earlier work
Cdc25A, sequence (P30304 whole entry): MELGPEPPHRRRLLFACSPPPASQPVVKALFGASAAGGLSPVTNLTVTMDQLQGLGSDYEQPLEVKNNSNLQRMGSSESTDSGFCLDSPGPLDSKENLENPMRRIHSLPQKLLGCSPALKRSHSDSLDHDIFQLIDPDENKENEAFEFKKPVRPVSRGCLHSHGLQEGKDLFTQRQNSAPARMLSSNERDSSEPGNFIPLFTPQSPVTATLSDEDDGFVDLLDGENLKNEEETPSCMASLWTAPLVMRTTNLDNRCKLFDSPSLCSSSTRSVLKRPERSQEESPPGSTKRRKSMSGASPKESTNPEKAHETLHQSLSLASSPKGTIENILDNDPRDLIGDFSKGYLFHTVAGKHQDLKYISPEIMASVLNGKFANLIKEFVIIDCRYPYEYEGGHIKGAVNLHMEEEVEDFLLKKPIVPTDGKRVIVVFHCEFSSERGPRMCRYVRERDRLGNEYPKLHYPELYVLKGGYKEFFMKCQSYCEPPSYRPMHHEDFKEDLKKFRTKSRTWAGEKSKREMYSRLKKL

Cc1nc2c(s1)C(=O)C=C(NCCCN(C)CCCNC1=CC(=O)c3nc(-c4cc(F)ccc4F)oc3C1=O)C2=O [IRC-083864]
apparent toxicity [1]: No sign of apparent toxicity
potency of tumor cell proliferation inhibition [2]: equivalent to that of BN82685
expression of CD14 ([3]; 100 nM, 6 days): increased
morphology of primary cells ([3]; days 6 and 9): monocytic-like morphological nuclear changes
proliferation of MOLM-14 [4]: robust inhibition
accumulation in a phase of the cell cycle (FLT3-ITD cells): nor accumulation in a particular phase of the cell cycle
cell death (FLT3-ITD cells): did not induce neither significant cell death
proliferation and death of ITD/TKD cells [5]: induced cell proliferation arrest and cell death
proliferation of HL-60 ([6]; 200 nM): did not decrease
proliferation of HL60 upon stimulation by FLT3 ligand ([6]; FLT3 ligand stimulation): had no effect
IC50 Cdc25 enzyme type A (Cdc25A): nanomolar range

— patent publication US10179914B2, “CDC25A inhibitor for the treatment of drug resistant cancer or for the prevention of tumor relapse” (INSERM (INSTITUT NATIONAL DE LA SANTÉ ET DE LA RECHERCHE …, priority 2014, dated 2019)
